We go through twelve compounds from ChEMBL document CHEMBL1140360, “Synthesis and biological activity of 3,4-dihydroquinazolines for selective T-type Ca2+ channel blockers” (Bioorg Med Chem Lett, 2005).

Holding throughout (assay type): cell-based
One assay concerns HEK293. The assay is described as follows: Selectivity for T-type and N-type [Ca2+] channels expressed in HEK293 cells at 10 uM. To be noted: Homo sapiens.
In assay [1] the target is Voltage-dependent N-type calcium channel subunit alpha-1B (Homo sapiens) (UniProt Q00975). The assay is described as follows: Percent inhibition of N-type [Ca2+] channel (Alpha-1B) expressed in HEK293 cells at 10 uM.
The target in assay [2] is T1, Voltage-dependent T-type calcium channel subunit alpha-1G (Homo sapiens, UniProt O43497). Briefly: Percent inhibition of T-type [Ca2+] channel (alpha1G) expressed in HEK293 cells at 10 uM.
Assay [3] addresses Voltage-dependent T-type calcium channel subunit alpha-1H (Homo sapiens) (UniProt O95180). The assay is described as follows: Percent inhibition of T-type [Ca2+] channel (alpha1H) stably expressed in Xenopus oocytes at 100 uM. The following applies: Oocyte.
Assay [4] addresses T1, Voltage-dependent T-type calcium channel subunit alpha-1G. The assay is described as follows: Inhibition of T-type [Ca2+] channel (alpha1G) expressed in HEK293 cells.
Assay [5] addresses Voltage-dependent N-type calcium channel subunit alpha-1B (Homo sapiens) (UniProt Q00975). Briefly: Percent inhibition of N-type [Ca2+] channel (Alpha-1B) expressed in HEK293 cells at 10 uM; No blocking.

By inhibition is commonly meant the relative decrease from the control value, in per cent. A word on the IC50: it is the point on the concentration scale where inhibition reaches its midpoint.

Sequence of Voltage-dependent T-type calcium channel subunit alpha-1H (Homo sapiens) (O95180 whole entry): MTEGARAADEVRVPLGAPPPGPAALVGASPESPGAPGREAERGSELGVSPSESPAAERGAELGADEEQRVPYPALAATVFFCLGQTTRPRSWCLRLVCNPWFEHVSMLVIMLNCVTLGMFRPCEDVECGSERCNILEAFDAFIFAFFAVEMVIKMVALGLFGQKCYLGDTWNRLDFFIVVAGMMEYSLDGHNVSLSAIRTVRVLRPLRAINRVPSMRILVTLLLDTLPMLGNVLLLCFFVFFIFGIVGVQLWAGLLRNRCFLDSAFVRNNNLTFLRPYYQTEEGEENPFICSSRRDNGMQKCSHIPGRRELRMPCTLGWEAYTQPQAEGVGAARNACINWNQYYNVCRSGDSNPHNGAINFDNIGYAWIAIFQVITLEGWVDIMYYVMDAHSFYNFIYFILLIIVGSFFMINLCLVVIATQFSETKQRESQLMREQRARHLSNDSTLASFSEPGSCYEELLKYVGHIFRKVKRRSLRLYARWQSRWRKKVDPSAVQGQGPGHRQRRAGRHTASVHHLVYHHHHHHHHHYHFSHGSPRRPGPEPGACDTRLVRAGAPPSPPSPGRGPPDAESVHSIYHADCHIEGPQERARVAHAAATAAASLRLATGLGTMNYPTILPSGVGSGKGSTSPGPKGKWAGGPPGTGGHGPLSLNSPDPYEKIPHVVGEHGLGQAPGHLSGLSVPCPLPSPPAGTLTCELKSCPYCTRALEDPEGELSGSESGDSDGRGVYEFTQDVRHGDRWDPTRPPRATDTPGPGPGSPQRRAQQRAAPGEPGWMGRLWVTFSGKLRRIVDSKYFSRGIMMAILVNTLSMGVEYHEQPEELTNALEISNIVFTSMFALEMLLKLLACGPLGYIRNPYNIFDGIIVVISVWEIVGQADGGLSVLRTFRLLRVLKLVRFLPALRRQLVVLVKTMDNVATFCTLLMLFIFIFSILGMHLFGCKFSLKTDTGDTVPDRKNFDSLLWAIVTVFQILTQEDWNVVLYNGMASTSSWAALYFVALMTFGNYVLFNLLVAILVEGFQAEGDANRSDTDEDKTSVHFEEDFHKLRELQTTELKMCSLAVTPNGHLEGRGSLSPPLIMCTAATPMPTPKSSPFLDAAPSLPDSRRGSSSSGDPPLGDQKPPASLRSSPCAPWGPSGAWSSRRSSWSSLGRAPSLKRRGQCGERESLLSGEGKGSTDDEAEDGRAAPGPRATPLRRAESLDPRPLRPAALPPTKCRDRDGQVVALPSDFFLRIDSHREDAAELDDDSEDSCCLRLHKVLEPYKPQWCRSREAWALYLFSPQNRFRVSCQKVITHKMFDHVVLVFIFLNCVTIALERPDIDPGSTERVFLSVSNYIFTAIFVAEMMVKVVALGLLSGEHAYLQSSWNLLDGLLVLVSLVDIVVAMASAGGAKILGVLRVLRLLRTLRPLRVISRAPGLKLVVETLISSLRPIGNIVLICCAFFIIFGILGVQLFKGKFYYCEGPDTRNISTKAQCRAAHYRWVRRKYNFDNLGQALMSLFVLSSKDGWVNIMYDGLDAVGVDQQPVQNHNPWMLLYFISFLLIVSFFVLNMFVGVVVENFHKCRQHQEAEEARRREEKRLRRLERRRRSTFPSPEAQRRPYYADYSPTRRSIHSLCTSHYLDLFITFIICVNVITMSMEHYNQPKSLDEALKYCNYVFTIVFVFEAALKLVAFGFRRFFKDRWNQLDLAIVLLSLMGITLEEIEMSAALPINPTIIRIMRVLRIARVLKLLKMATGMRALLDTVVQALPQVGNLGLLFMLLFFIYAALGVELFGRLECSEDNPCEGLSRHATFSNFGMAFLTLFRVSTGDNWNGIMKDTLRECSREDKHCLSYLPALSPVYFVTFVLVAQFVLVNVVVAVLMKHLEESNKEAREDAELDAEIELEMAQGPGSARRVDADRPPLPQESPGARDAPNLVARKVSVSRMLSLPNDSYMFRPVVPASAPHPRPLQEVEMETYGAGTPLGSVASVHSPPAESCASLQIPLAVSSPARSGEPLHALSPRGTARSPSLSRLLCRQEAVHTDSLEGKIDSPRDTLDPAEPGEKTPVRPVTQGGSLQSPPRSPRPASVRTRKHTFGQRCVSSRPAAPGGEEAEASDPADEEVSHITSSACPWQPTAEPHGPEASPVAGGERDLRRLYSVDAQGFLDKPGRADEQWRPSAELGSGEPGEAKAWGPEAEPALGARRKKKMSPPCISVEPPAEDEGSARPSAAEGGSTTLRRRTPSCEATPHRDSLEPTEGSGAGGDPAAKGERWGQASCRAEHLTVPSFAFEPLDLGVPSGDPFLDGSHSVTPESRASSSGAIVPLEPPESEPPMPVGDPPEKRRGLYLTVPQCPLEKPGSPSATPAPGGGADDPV
T1 sequence (O43497 whole entry): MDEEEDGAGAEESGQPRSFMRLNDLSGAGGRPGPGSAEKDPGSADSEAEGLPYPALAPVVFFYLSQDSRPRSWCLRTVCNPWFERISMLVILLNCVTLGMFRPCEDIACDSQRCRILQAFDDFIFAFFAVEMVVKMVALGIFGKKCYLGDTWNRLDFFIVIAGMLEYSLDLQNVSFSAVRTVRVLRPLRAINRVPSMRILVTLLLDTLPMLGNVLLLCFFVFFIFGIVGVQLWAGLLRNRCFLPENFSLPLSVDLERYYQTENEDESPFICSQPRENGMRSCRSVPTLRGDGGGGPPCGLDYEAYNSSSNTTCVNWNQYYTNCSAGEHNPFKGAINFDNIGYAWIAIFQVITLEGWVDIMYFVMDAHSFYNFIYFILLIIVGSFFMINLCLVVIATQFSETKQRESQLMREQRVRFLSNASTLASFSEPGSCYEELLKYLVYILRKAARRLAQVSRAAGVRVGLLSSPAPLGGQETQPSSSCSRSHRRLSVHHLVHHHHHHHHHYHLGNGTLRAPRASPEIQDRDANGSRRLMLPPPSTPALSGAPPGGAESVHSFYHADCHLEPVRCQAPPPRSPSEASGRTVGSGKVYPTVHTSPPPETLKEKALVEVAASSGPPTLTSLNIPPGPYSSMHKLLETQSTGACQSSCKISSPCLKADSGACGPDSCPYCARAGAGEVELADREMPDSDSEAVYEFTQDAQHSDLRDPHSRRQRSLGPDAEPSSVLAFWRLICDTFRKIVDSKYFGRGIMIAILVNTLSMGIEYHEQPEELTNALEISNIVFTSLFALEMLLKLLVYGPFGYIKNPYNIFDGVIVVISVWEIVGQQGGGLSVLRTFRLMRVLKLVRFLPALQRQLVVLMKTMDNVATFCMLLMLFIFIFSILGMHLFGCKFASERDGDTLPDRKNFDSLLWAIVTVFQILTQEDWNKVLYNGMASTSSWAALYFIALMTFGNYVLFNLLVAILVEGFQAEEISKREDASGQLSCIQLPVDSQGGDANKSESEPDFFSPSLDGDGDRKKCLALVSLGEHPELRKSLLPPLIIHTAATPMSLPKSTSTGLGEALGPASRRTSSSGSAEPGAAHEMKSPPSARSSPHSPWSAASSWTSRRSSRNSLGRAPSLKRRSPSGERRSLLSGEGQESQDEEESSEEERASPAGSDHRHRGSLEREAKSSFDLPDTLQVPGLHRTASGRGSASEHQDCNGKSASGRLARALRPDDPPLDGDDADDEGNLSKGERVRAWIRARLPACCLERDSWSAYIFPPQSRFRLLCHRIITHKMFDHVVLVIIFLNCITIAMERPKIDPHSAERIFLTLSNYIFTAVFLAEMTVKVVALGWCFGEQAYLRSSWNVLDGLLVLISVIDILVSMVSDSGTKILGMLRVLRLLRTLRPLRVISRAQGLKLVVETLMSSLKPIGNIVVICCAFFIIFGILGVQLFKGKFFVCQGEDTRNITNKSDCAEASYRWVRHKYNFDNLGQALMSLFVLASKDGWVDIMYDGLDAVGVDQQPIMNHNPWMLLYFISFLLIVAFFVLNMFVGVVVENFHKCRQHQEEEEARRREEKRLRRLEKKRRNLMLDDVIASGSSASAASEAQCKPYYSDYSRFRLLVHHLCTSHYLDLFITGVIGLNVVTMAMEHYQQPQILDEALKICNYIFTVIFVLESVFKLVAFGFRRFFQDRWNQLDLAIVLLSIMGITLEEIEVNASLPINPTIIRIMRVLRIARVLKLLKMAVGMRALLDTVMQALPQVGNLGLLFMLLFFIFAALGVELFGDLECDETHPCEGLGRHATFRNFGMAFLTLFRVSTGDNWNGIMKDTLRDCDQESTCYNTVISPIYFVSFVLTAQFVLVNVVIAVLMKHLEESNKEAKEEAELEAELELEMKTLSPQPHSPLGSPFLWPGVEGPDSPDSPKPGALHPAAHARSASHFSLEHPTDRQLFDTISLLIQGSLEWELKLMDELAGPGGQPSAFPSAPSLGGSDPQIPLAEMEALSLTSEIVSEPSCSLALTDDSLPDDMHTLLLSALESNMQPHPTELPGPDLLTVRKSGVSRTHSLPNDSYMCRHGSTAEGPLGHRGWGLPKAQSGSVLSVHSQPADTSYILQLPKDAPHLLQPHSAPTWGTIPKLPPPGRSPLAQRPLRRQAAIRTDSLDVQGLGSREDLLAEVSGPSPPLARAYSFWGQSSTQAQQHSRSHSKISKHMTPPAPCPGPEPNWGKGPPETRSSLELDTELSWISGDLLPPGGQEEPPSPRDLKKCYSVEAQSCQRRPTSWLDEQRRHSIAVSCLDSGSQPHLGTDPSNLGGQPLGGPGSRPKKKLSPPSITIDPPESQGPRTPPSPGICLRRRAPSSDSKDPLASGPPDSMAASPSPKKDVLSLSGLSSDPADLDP

In the case of `CC(C)(C)OC(=O)NCCCCCN1C(Nc2ccc(-c3ccccc3)cc2)=Nc2ccccc2C1CC(=O)NCc1ccccc1` (configuration not stated), the Selectivity in the assay with HEK293 was 2.9. Also, the results for the inhibition in assay [1], in assay [2] and in assay [3] were 30.1%, 88.5% and 91.2%, respectively. The IC50 in assay [4] is 170 nM.
Consider `COC(=O)CC1c2ccccc2N=C(NCCCCCNC(=O)OC(C)(C)C)N1c1ccc(-c2ccccc2)cc1` (configuration not stated), for which the Selectivity in the assay on HEK293 is 0.9. Further, the inhibition turned out to be 98.6% in assay [1], 86.5% in assay [2] and 92.2% in assay [3]. For the same compound, the IC50 in assay [4] turned out to be 680 nM.
Consider `O=C(CC1c2ccccc2N=C(N2CCCCC2)N1c1ccccc1)NCc1ccc(NS(=O)(=O)c2ccc(F)cc2)cc1` (configuration not stated), for which the half-inhibitory concentration (IC50) in assay [4] was determined as 110 nM.
For `COCC(=O)O[C@]1(CCN(C)CCCc2nc3ccccc3[nH]2)CCc2cc(F)ccc2[C@@H]1C(C)C`, the inhibition in assay [1] is 67.6%.
Turning to `O=C(CC1c2ccccc2N=C(N2CCCCC2)N1c1ccccc1)NCc1ccccc1` (configuration not stated), in assay [4], the IC50 is 1160 nM.
In the assay on HEK293, `COC(=O)CC1c2ccccc2N=C(Nc2ccc(-c3ccccc3)cc2)N1CCCCCN` (configuration not stated) yielded a Selectivity of 11.2. Also, the inhibition in assay [1] came out at 7.5%; in assay [2] it was 84.1%; in assay [3], 94.6%. Further, in assay [4], the IC50 came to 300 nM.
In the case of `COC(=O)CC1c2ccccc2N=C(NCCCCCN)N1c1ccc(-c2ccccc2)cc1` (configuration not stated), the inhibition was 82.5% in assay [2], 97% in assay [3] and below 1% in assay [5].
In turn, `NCCCCCN1C(Nc2ccc(-c3ccccc3)cc2)=Nc2ccccc2C1CC(=O)NCc1ccccc1` (configuration not stated) displayed a Selectivity in the assay with HEK293 of 6. For the same compound, the results for the inhibition in assay [1], in assay [2] and in assay [3] were 15.2%, 91.8% and 97%, respectively. The IC50 in assay [4] turned out to be 140 nM.
With `Cc1ccc(S(=O)(=O)Nc2ccc(CNC(=O)CC3c4ccccc4N=C(N4CCCCC4)N3c3ccccc3)cc2)cc1` (configuration not stated), the IC50 in assay [4] amounted to 170 nM.
In the assay with HEK293, `COC(=O)CC1c2ccccc2N=C(Nc2ccc(-c3ccccc3)cc2)N1CCCCCNC(=O)OC(C)(C)C` (configuration not stated) registered a Selectivity of 0.9. The inhibition in assay [1] was found to be 94.9%; in assay [2], 88.5%; in assay [3], 96.5%. Further, in assay [4], the IC50 is 370 nM.
The matching figures for `CC(C)(C)OC(=O)NCCCCCNC1=Nc2ccccc2C(CC(=O)NCc2ccccc2)N1c1ccc(-c2ccccc2)cc1` (configuration not stated): 5.3, 16.6%, 88.3%, 84.2% and 160 nM.
Take `NCCCCCNC1=Nc2ccccc2C(CC(=O)NCc2ccccc2)N1c1ccc(-c2ccccc2)cc1` (configuration not stated): the Selectivity in the assay with HEK293 is 10.1. For the same compound, the inhibition came out at 8.3% in assay [1], 83.8% in assay [2] and 80.1% in assay [3]. Moreover, the IC50 in assay [4] came out at 130 nM.
